Measured values published in PMC9518264, “Design and synthesis of novel quinazolinone-based derivatives as EGFR inhibitors with antitumor activity” (Journal of Enzyme Inhibition and Medicinal Chemistry, 2022).

Legend:
CCRF-CEM = assay: cells; assay type: cell-based; conditions: Homo sapiens, 10 μM, read-out: growth inhibition % (GI%)
K-562 = assay: cells; assay type: cell-based; conditions: Homo sapiens, K562; K-562; 10 μM; read-out: growth inhibition % (GI%)
RPMI-8226 = assay: cells; assay type: cell-based; conditions: Homo sapiens; RPMI-8226; 10 μM; read-out: growth inhibition % (GI%)
SR = assay: cells; assay type: cell-based; conditions: Homo sapiens, 10 μM, read-out: growth inhibition % (GI%)
EKVX = assay: cells; assay type: cell-based; conditions: Homo sapiens, 10 μM, read-out: growth inhibition % (GI%)
HOP-62 = assay: cells; assay type: cell-based; conditions: Homo sapiens; HOP-62; 10 μM; read-out: growth inhibition % (GI%)
HOP-92 = assay: cells; assay type: cell-based; conditions: Homo sapiens; HOP-92; 10 μM; read-out: growth inhibition % (GI%)
NCI-H226 = assay: cells; assay type: cell-based; conditions: Homo sapiens; NCI-H226; 10 μM; read-out: growth inhibition % (GI%)
NCI-H322M = assay: cells; assay type: cell-based; conditions: Homo sapiens, 10 μM, read-out: growth inhibition % (GI%)
NCI-H460 = assay: cells; assay type: cell-based; conditions: Homo sapiens; NCI-H460; 10 μM; read-out: growth inhibition % (GI%)
NCI-H522 = assay: cells; assay type: cell-based; conditions: Homo sapiens; NCI-H522; 10 μM; read-out: growth inhibition % (GI%)
COLO-205 = assay: cells; assay type: cell-based; conditions: Homo sapiens; COLO-205; 10 μM; read-out: growth inhibition % (GI%)
HCC-2998 = assay: cells; assay type: cell-based; conditions: Homo sapiens; HCC-2998; 10 μM; read-out: growth inhibition % (GI%)
HCT-116 = assay: cells; assay type: cell-based; conditions: Homo sapiens; HCT-116; 10 μM; read-out: growth inhibition % (GI%)
HT29 = assay: cells; assay type: cell-based; conditions: Homo sapiens, HT-29; HT29; 10 μM; read-out: growth inhibition % (GI%)
SW-620 = assay: cells; assay type: cell-based; conditions: Homo sapiens; SW-620; 10 μM; read-out: growth inhibition % (GI%)
SF-268 = assay: cells; assay type: cell-based; conditions: Homo sapiens; SF-268; 10 μM; read-out: growth inhibition % (GI%)
SF-539 = assay: cells; assay type: cell-based; conditions: Homo sapiens; SF-539; 10 μM; read-out: growth inhibition % (GI%)
SNB-19 = assay: cells; assay type: cell-based; conditions: Homo sapiens; SNB-19; 10 μM; read-out: growth inhibition % (GI%)
SNB-75 = assay: cells; assay type: cell-based; conditions: Homo sapiens; SNB-75; 10 μM; read-out: growth inhibition % (GI%)
LOX IMIV = assay: cells; assay type: cell-based; conditions: Homo sapiens, 60 cell; LOX IMIV; 10 μM; read-out: growth inhibition % (GI%)
MDA-MB-435 = assay: cells; assay type: cell-based; conditions: Homo sapiens; MDA-MB-435; 10 μM; read-out: growth inhibition % (GI%)
SK-MEL-2 = assay: cells; assay type: cell-based; conditions: Homo sapiens; SK-MEL-2; 10 μM; read-out: growth inhibition % (GI%)
SK-MEL-28 = assay: cells; assay type: cell-based; conditions: Homo sapiens; SK-MEL-28; 10 μM; read-out: growth inhibition % (GI%)
SK-MEL-5 = assay: cells; assay type: cell-based; conditions: Homo sapiens; SK-MEL-5; 10 μM; read-out: growth inhibition % (GI%)
UACC-257 = assay: cells; assay type: cell-based; conditions: Homo sapiens; UACC-257; 10 μM; read-out: growth inhibition % (GI%)
UACC-62 = assay: cells; assay type: cell-based; conditions: Homo sapiens; UACC-62; 10 μM; read-out: growth inhibition % (GI%)
IGROV1 = assay: cells; assay type: cell-based; conditions: Homo sapiens, IGROV-1; IGROV1; 10 μM; read-out: growth inhibition % (GI%)
OVCAR-4 = assay: cells; assay type: cell-based; conditions: Homo sapiens; OVCAR-4; 10 μM; read-out: growth inhibition % (GI%)
OVCAR-5 = assay: cells; assay type: cell-based; conditions: Homo sapiens; OVCAR-5; 10 μM; read-out: growth inhibition % (GI%)
OVCAR-8 = assay: cells; assay type: cell-based; conditions: Homo sapiens; OVCAR-8; 10 μM; read-out: growth inhibition % (GI%)
NCI/ADR-RES = assay: cells; assay type: cell-based; conditions: Homo sapiens, 10 μM, read-out: growth inhibition % (GI%)
SK-OV-3 = assay: cells; assay type: cell-based; conditions: Homo sapiens; SK-OV-3; 10 μM; read-out: growth inhibition % (GI%)
786-0 = assay: cells; assay type: cell-based; conditions: Homo sapiens; 786-0; 10 μM; read-out: growth inhibition % (GI%)
A498 = assay: cells; assay type: cell-based; conditions: Homo sapiens; A498; 10 μM; read-out: growth inhibition % (GI%)
ACHN = assay: cells; assay type: cell-based; conditions: Homo sapiens, 10 μM, read-out: growth inhibition % (GI%)
SN12C = assay: cells; assay type: cell-based; conditions: Homo sapiens, 10 μM, read-out: growth inhibition % (GI%)
TK-10 = assay: cells; assay type: cell-based; conditions: Homo sapiens; TK-10; 10 μM; read-out: growth inhibition % (GI%)
UO-31 = assay: cells; assay type: cell-based; conditions: Homo sapiens; UO-31; 10 μM; read-out: growth inhibition % (GI%)
PC-3 = assay: cells; assay type: cell-based; conditions: Homo sapiens; PC-3; 10 μM; read-out: growth inhibition % (GI%)
MDA-MB-231/ATCC = assay: NCI 60 cell line antiproliferative screening (SRB), Breast cancer; assay type: cell-based; conditions: Homo sapiens, MDA-MB-231, read-out: growth inhibition % (GI%)
BT-549 = assay: cells; assay type: cell-based; conditions: Homo sapiens; BT-549; 10 μM; read-out: growth inhibition % (GI%)
T-47D = assay: cells; assay type: cell-based; conditions: Homo sapiens, T47D; T-47D; 10 μM; read-out: growth inhibition % (GI%)
[1] = test system: panel of 60 tumour cell lines; assay: NCI 60 cell line antiproliferative screening (SRB), whole panel or subpanels (means, ranges, words); assay type: cell-based, human
MDA-MB-468 = assay: NCI 60 cell line antiproliferative screening (SRB), Breast cancer; conditions: Homo sapiens, MDA-MB-468, read-out: growth inhibition % (GI%)
OVCAR-3 = assay: NCI 60 cell line antiproliferative screening (SRB), Ovarian cancer; conditions: Homo sapiens, OVCAR-3, read-out: growth inhibition % (GI%)

O=C(CSc1nc2ccccc2c(=O)n1-c1ccc(Cl)cc1)NN=Cc1ccc(Oc2ccc(Br)cc2)cc1 [6e, N'-(4–(4-bromophenoxy)benzylidene)-2-((3–(4-chlorophenyl)-4-oxo-3,4-dihydroquinazolin-2-yl)thio)acetohydrazide] was tested, and the inhibition at 10 µM (CCRF-CEM) was < 15%, the inhibition at 10 µM (K-562) was < 15% and the inhibition at 10 µM (RPMI-8226) was < 15%. The inhibition at 10 µM (SR) was < 15%, the inhibition at 10 µM (EKVX) was < 15% and the inhibition at 10 µM (HOP-62) was < 15%. The inhibition at 10 µM (HOP-92) was < 15%, the inhibition at 10 µM (NCI-H226) was < 15% and the inhibition at 10 µM (NCI-H322M) was < 15%. The inhibition at 10 µM (NCI-H460) was < 15%, the inhibition at 10 µM (NCI-H522) was 13.4% and the inhibition at 10 µM (COLO-205) was < 15%. For the same molecule, the inhibition at 10 µM (HCC-2998) was < 15%, the inhibition at 10 µM (HCT-116) was < 15% and the inhibition at 10 µM (HT29) was < 15%. For the same molecule, the inhibition at 10 µM (SW-620) was < 15%, the inhibition at 10 µM (SF-268) was < 15% and the inhibition at 10 µM (SF-539) was < 15%. For the same molecule, the inhibition at 10 µM (SNB-19) was < 15%, the inhibition at 10 µM (SNB-75) was < 15% and the inhibition at 10 µM (LOX IMIV) was < 15%. For the same molecule, the inhibition at 10 µM (MDA-MB-435) was < 15%, the inhibition at 10 µM (SK-MEL-2) was < 15% and the inhibition at 10 µM (SK-MEL-28) was < 15%. The inhibition at 10 µM (SK-MEL-5) was < 15%, the inhibition at 10 µM (UACC-257) was < 15% and the inhibition at 10 µM (UACC-62) was < 15%. For the same molecule, the inhibition at 10 µM (IGROV1) was < 15%, the inhibition at 10 µM (OVCAR-4) was < 15% and the inhibition at 10 µM (OVCAR-5) was < 15%. The inhibition at 10 µM (OVCAR-8) was < 15%, the inhibition at 10 µM (NCI/ADR-RES) was < 15% and the inhibition at 10 µM (SK-OV-3) was < 15%. The inhibition at 10 µM (786-0) was < 15%, the inhibition at 10 µM (A498) was 15.7% and the inhibition at 10 µM (ACHN) was < 15%. For the same molecule, the inhibition at 10 µM (SN12C) was < 15%, the inhibition at 10 µM (TK-10) was < 15% and the inhibition at 10 µM (UO-31) was 20.8%. For the same molecule, the inhibition at 10 µM (PC-3) was < 15%, the inhibition at 10 µM (MDA-MB-231/ATCC) was < 15% and the inhibition at 10 µM (BT-549) was < 15%. The inhibition at 10 µM (T-47D) was < 15%, the “antiproliferative activity against all tested cell lines” value ([1]; 10 μM single dose) was “abolishing the antiproliferative activity” and the inhibition at 10 µM ([1]; Homo sapiens, 60 cell, mean over the cell line panel, 10 μM, read-out: Mean growth inhibition % (mean GI%)) was < 0%. The inhibition at 10 µM (MDA-MB-468) was < 15% and the inhibition at 10 µM (OVCAR-3) was < 15%.
